Measurements published in US20220402998A1, “PROTEASE SWITCH FOR DUAL TARGETS CHIMERIC ANTIGEN RECEPTOR T CELL THERAPY” (priority 2019, published 2022).

Test system: NS3/4A protease domain of the CAR
Experiment: CAR surface expression on transduced T cells by flow cytometry with or without asunaprevir
Type: cell-based, hepatitis C virus
Method: For flow cytometry, cells are stained using standard procedures. Briefly, cells are suspended at a concentration of 1×10^7 cells/ml in PBS+3% FBS for analysis or in Sort Buffer (PBS, 25 mM HEPES, 1 mM EDTA, 0.1% BSA) for sorting. […] Cells are analyzed by flow cytometry using a CytoFLEX (Beckman Coulter Life Sciences, Indianapolis, Ind.) and operated under standard procedures. To enrich subpopulations of CD4+ and/or CD8+ cells, magnetically separated cells are stained with anti-CD4 and/or anti-CD8 antibodies and sorted on a FACScalibur Cell Sorter.
After T cell transduction, different drugs were provided, CD19-, CD22-CAR were detected by CD19, CD22 protein through flow cytometry. Further, the biological characteristics of the dual-target switchable CAR-T cells were determined. For example, CD25 and CD69 antibodies were used to perform activation assays, CFSE for proliferation assays, CD4, CD8, CCR7 and CD45RA antibodies for determining T cell subsets, and Annexin-V for apoptosis assays. Further, cytotoxicity assays (Calcein-AM release), CD107a assay, and cytokine production detection were performed. These assays are of great importance in testing potency and defining how the switch system works.

What does the source list for `C=C[C@@H]1C[C@]1(NC(=O)[C@@H]1C[C@@H](Oc2ncc(OC)c3ccc(Cl)cc23)CN1C(=O)[C@@H](NC(=O)OC(C)(C)C)C(C)(C)C)C(=O)NS(=O)(=O)C1CC1` [asunaprevir]?
stability of CAR expression levels over time (in the presence of asunaprevir): stable over time; CAR expression on T cell surface (in the presence of asunaprevir, flow cytometry): a significant portion of T cells express on their cell surface the CAR; expression levels of CARs on cell surface versus concentration (increasing concentrations of asunaprevir): increase with exposure of said T cells to increasing concentrations of asunaprevir; CARs on the surface of CAR-T cells after withdrawal (withdrawal of asunaprevir for 24 hours): significant reduction of CARs on the surface of CAR-T cells; CARs on the surface of CAR-T cells after withdrawal (withdrawal of asunaprevir for 48 hours): absence of CARs on CAR-T cells
